Literature values in patent US10098891B2, “Highly concentrated stable meloxicam solutions for needleless injection” (BOEHRINGER INGELHEIM VETMEDICA GMBH, priority 2001, dated 2018).

Details: aqueous solution

Which solubility in water does the source give for `Cc1cnc(NC(=O)C2=C(O)c3ccccc3S(=O)(=O)N2C)s1` [meloxicam, 4-hydroxy-2-methyl-N-(5-methyl-2-thiazolyl)-2H-1,2-benzothiazine-3-carboxamide-1,1-dioxide] here?
The solubility in water was “does not dissolve readily in water”.
